Measured values: PMC9719519, “Non-classical ferroptosis inhibition by a small molecule targeting PHB2” (Nature Communications, 2022)

Experiments:
ALK2(h) = target: T1, ALK2(h) (Homo sapiens, UniProt Q04771); assay: biochemical; parameters: Eurofins recombinant human kinase profiling, remaining kinase activity as % of control, 10 uM ATP; details: ATP 10 uM; read-out: %Ctrl@10 μM
T1 construct: gene ACVR1
In short: (§1)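 Activity measured in a commercial panel of 401 recombinant human protein kinases run as a kinase profiling service.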

cKit(h) = target: T2, cKit(h) (Homo sapiens, UniProt P10721); assay: biochemical; parameters: Eurofins recombinant human kinase profiling, remaining kinase activity as % of control, 10 uM ATP; details: ATP 10 uM; read-out: %Ctrl@10 μM
T2 construct: gene KIT
In short: as §1

TrkA(h) = target: T3, TrkA(h) (Homo sapiens, UniProt P04629); assay: biochemical; parameters: Eurofins recombinant human kinase profiling, remaining kinase activity as % of control, 10 uM ATP; details: ATP 10 uM; read-out: %Ctrl@10 μM
T3 construct: gene NTRK1
In short: as §1

MYLK2(h) = MYLK2(h) (Homo sapiens, UniProt Q9H1R3); assay: biochemical; parameters: Eurofins recombinant human kinase profiling, remaining kinase activity as % of control, 10 uM ATP; details: ATP 10 uM; read-out: %Ctrl@10 μM
In short: as §1

Tie2(R849W)(h) = target: T4, Tie2(R849W)(h) (Homo sapiens, UniProt Q02763, R849W); assay: biochemical; parameters: Eurofins recombinant human kinase profiling, remaining kinase activity as % of control, 10 uM ATP; details: ATP 10 uM; read-out: %Ctrl@10 μM
T4 construct: gene TEK
In short: as §1

cKit(D816H)(h) = target: T5, cKit(D816H)(h) (Homo sapiens, UniProt P10721, D816H); assay: biochemical; parameters: Eurofins recombinant human kinase profiling, remaining kinase activity as % of control, 10 uM ATP; details: ATP 10 uM; read-out: %Ctrl@10 μM
T5 construct: gene KIT
In short: as §1

TSSK2(h) = TSSK2(h) (Homo sapiens, UniProt Q96PF2); assay: biochemical; parameters: Eurofins recombinant human kinase profiling, remaining kinase activity as % of control, 10 uM ATP; details: ATP 10 uM; read-out: %Ctrl@10 μM
In short: as §1

SGK3(h) = SGK3(h) (Homo sapiens, UniProt Q96BR1); assay: biochemical; parameters: Eurofins recombinant human kinase profiling, remaining kinase activity as % of control, 10 uM ATP; details: ATP 10 uM; read-out: %Ctrl@10 μM
In short: as §1

FGFR4(h) = FGFR4(h) (Homo sapiens, UniProt P22455); assay: biochemical; parameters: Eurofins recombinant human kinase profiling, remaining kinase activity as % of control, 10 uM ATP; details: ATP 10 uM; read-out: %Ctrl@10 μM
In short: as §1

CDKL2(h) = CDKL2(h) (Homo sapiens, UniProt Q92772); assay: biochemical; parameters: Eurofins recombinant human kinase profiling, remaining kinase activity as % of control, 10 uM ATP; details: ATP 10 uM; read-out: %Ctrl@10 μM
In short: as §1

SIK(h) = target: T6, SIK(h) (Homo sapiens, UniProt P57059); assay: biochemical; parameters: Eurofins recombinant human kinase profiling, remaining kinase activity as % of control, 10 uM ATP; details: ATP 10 uM; read-out: %Ctrl@10 μM
T6 construct: gene SIK1
In short: as §1

SRPK2(h) = SRPK2(h) (Homo sapiens, UniProt P78362); assay: biochemical; parameters: Eurofins recombinant human kinase profiling, remaining kinase activity as % of control, 10 uM ATP; details: ATP 10 uM; read-out: %Ctrl@10 μM
In short: as §1

DYRK1A(h) = DYRK1A(h) (Homo sapiens, UniProt Q13627); assay: biochemical; parameters: Eurofins recombinant human kinase profiling, remaining kinase activity as % of control, 10 uM ATP; details: ATP 10 uM; read-out: %Ctrl@10 μM
In short: as §1

NEK1(h) = NEK1(h) (Homo sapiens, UniProt Q96PY6); assay: biochemical; parameters: Eurofins recombinant human kinase profiling, remaining kinase activity as % of control, 10 uM ATP; details: ATP 10 uM; read-out: %Ctrl@10 μM
In short: as §1

Lck(h) activated = Lck(h) activated (Homo sapiens, UniProt P06239); assay: biochemical; parameters: Eurofins recombinant human kinase profiling, remaining kinase activity as % of control, 10 uM ATP; details: ATP 10 uM; read-out: %Ctrl@10 μM
In short: as §1

PKBγ(h) = target: T7, PKBγ(h) (Homo sapiens, UniProt Q9Y243); assay: biochemical; parameters: Eurofins recombinant human kinase profiling, remaining kinase activity as % of control, 10 uM ATP; details: ATP 10 uM; read-out: %Ctrl@10 μM
T7 construct: gene AKT3
In short: as §1

STK32B(h) = STK32B(h) (Homo sapiens, UniProt Q9NY57); assay: biochemical; parameters: Eurofins recombinant human kinase profiling, remaining kinase activity as % of control, 10 uM ATP; details: ATP 10 uM; read-out: %Ctrl@10 μM
In short: as §1

LIMK2(h) = LIMK2(h) (Homo sapiens, UniProt P53671); assay: biochemical; parameters: Eurofins recombinant human kinase profiling, remaining kinase activity as % of control, 10 uM ATP; details: ATP 10 uM; read-out: %Ctrl@10 μM
In short: as §1

prohibitin 2 (PHB2) = prohibitin 2 (PHB2) (Homo sapiens, UniProt Q99623); assay: SPR on purified recombinant PHB2 […]-194; DSF shift […] °C; DARTS in cells; format: binding; parameters: PHB2 1–194 (6× His tag)

T7 sequence (Q9Y243 whole entry): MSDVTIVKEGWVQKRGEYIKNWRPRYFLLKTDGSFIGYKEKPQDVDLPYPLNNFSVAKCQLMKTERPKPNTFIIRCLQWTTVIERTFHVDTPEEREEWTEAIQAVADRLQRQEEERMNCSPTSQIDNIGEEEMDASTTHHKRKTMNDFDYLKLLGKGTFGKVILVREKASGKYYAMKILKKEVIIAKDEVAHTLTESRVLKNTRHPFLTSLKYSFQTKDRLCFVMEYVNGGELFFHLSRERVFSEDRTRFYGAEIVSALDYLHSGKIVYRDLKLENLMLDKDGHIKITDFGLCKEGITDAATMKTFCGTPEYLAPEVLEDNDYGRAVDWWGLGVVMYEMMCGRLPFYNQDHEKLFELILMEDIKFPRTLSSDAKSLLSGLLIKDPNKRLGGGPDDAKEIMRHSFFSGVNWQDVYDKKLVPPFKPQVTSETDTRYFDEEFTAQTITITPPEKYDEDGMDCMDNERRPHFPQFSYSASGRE
Sequence of LIMK2(h) (P53671 whole entry): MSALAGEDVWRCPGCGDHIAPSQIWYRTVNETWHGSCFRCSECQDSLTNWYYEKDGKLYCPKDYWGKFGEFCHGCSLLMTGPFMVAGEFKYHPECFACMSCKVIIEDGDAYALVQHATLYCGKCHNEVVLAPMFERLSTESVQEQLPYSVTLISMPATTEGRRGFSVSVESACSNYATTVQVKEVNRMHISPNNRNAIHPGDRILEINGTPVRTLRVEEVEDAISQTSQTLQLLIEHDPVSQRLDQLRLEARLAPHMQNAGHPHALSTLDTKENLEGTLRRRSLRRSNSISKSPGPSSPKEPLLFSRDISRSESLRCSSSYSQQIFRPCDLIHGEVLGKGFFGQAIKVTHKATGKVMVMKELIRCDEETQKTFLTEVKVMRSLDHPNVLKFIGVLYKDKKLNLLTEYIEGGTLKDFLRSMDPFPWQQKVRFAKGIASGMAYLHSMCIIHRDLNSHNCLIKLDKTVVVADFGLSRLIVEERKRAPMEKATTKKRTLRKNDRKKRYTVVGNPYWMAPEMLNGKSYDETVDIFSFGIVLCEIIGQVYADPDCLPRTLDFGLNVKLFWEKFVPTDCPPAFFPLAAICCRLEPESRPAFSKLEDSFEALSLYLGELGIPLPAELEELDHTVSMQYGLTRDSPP
T5 sequence (P10721 whole entry D816H): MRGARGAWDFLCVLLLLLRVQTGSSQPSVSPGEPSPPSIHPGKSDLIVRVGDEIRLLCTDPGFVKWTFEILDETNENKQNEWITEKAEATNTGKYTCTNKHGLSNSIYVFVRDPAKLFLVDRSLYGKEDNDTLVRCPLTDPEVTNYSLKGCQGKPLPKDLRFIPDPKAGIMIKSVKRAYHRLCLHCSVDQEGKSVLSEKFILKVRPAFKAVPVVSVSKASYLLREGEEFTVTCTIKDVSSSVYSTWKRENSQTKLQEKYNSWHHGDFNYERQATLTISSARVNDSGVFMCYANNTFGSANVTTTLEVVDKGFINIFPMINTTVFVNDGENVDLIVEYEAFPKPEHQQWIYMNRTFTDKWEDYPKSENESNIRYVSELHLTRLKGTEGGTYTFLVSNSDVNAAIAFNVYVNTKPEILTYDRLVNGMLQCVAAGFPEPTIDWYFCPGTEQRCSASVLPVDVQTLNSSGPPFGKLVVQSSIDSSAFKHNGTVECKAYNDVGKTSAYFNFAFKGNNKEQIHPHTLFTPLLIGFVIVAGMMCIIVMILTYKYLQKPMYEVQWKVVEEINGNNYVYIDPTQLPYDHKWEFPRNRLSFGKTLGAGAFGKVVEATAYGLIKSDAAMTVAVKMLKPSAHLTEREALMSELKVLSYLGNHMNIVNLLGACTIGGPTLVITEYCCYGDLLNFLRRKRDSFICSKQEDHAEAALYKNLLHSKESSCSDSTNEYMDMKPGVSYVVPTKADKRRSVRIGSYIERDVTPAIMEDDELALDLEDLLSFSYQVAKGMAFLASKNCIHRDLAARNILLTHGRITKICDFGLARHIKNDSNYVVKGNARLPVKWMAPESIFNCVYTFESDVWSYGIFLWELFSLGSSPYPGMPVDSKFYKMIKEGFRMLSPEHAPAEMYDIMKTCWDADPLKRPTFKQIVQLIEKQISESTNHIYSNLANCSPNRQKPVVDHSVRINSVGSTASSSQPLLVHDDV
Sequence of Lck(h) activated (P06239 whole entry): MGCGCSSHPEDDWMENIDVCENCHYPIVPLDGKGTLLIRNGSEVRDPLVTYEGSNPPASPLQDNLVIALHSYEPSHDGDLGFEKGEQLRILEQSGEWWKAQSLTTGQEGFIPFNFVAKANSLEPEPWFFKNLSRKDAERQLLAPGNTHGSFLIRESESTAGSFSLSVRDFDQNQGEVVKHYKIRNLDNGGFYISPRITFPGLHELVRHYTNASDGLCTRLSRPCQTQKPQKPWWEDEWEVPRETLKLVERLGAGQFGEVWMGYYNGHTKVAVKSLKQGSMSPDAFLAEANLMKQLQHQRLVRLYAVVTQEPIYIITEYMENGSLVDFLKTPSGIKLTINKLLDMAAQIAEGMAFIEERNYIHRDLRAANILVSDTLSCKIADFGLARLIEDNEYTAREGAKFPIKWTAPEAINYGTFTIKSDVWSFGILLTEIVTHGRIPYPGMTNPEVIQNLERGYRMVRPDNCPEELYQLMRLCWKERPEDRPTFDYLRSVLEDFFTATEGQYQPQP
T2 sequence (P10721 whole entry): as the sequence (P10721 whole entry D816H) above, with H816D counted along it
Sequence of STK32B(h) (Q9NY57 whole entry): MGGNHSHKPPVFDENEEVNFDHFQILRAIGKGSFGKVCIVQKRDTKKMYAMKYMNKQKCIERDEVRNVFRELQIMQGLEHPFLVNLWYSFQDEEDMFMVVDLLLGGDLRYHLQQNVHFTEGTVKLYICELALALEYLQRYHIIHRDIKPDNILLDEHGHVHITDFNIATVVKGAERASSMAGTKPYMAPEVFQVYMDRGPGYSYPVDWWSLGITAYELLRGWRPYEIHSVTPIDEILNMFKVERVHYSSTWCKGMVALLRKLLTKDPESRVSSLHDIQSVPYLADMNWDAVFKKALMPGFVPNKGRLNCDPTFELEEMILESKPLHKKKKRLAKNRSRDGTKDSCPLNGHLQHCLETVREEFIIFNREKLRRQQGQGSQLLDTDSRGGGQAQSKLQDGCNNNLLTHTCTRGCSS
T6 sequence (P57059 whole entry): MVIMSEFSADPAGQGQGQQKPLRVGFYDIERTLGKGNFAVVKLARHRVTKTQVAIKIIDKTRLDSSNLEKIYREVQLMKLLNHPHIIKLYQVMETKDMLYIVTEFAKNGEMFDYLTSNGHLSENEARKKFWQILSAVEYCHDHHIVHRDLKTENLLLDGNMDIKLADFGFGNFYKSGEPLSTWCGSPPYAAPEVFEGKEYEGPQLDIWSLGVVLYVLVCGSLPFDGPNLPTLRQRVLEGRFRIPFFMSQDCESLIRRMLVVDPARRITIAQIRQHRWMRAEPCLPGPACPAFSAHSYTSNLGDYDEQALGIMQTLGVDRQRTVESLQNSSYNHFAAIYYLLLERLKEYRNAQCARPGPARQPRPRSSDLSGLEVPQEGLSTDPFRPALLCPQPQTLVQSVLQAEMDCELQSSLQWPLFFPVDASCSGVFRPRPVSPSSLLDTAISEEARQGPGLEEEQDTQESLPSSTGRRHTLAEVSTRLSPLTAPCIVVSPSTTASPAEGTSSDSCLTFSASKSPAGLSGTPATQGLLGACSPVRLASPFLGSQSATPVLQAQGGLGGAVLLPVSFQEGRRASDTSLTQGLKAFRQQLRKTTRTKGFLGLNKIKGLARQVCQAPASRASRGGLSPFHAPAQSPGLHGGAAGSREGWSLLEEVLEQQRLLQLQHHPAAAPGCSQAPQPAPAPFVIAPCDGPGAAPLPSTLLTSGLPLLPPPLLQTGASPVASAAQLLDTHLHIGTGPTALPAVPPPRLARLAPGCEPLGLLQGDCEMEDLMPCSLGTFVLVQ
T3 sequence (P04629 whole entry): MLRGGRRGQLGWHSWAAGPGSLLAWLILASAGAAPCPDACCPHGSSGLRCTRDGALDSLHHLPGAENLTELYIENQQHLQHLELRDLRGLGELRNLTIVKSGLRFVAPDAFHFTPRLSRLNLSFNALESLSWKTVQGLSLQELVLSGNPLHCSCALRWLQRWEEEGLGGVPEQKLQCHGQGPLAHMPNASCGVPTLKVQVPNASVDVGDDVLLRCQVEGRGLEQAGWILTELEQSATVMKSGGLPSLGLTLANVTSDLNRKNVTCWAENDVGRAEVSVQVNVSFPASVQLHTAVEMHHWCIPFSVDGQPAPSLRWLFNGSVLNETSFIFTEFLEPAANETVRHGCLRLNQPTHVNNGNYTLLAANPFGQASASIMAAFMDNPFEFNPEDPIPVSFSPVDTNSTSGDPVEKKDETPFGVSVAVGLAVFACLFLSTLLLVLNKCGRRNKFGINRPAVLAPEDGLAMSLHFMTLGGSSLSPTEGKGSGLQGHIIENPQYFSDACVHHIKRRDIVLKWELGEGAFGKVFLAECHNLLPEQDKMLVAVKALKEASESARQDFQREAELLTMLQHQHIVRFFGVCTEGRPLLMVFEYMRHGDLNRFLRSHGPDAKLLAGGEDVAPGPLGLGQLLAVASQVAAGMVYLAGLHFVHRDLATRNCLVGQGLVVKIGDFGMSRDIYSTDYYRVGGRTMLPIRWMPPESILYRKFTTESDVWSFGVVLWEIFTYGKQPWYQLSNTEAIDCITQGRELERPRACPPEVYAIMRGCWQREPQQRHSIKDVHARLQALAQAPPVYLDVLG
Sequence of TSSK2(h) (Q96PF2 whole entry): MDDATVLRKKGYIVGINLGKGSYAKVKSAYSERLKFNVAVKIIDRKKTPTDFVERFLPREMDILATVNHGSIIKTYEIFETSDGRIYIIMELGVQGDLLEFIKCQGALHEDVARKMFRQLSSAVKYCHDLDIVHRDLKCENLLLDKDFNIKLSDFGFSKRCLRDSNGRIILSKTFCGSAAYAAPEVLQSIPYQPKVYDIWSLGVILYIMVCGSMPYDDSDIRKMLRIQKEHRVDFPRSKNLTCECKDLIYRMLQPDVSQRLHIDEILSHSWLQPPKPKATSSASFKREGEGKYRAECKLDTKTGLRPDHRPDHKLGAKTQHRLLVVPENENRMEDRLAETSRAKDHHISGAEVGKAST

C1=C(c2nc(-c3cnn(C4CCNCC4)c3)cn3cc(-c4ccccc4)nc23)CCOC1 [YL-939]
remaining activity at 10 µM (ALK2(h)): 88%
remaining activity at 10 µM (cKit(h)): 81%
remaining activity at 10 µM (TrkA(h)): 75%
remaining activity at 10 µM (MYLK2(h)): 52%
remaining activity at 10 µM (Tie2(R849W)(h)): 122%
remaining activity at 10 µM (cKit(D816H)(h)): 90%
remaining activity at 10 µM (TSSK2(h)): 83%
remaining activity at 10 µM (SGK3(h)): 83%
remaining activity at 10 µM (FGFR4(h)): 94%
remaining activity at 10 µM (CDKL2(h)): 74%
remaining activity at 10 µM (SIK(h)): 100%
remaining activity at 10 µM (SRPK2(h)): 87%
remaining activity at 10 µM (DYRK1A(h)): 83%
remaining activity at 10 µM (NEK1(h)): 105%
remaining activity at 10 µM (Lck(h) activated): 77%
remaining activity at 10 µM (PKBγ(h)): 97%
remaining activity at 10 µM (STK32B(h)): 105%
remaining activity at 10 µM (LIMK2(h)): 85%
Kd (prohibitin 2 (PHB2)): 3.43 µM
